# Assay results from US10675294B2, “Pharmaceutical composition containing 8 OXO-deoxyguanosine or pharmaceutically acceptable salt thereof as active ingredient for treating corneal disease” (GACHON UNIVERSITY OF INDUSTRY-ACADEMIC COOPERATION …, priority 2016, dated 2020).
# Assays:
# Rac protein = details: exogenous 8-oxo-dG; previous experiments with animal models; cited from earlier work
# [1] = system: ethanol induced corneal injury mouse model; assay: Clinical index scoring of corneal epithelium damage recovery; format: in vivo
# Description: (§1) Particularly, in order to construct a corneal injury mouse model using ethanol, a filter paper of 6 mm in diameter soaked in 100% ethanol was applied onto the cornea of the right eye of a female BALB/c mouse at 10 weeks of age for 30 seconds, followed by irrigation with PBS (phosphate-buffered saline) for 1 minute. In order to observe the defects of the corneal epithelium surface easily, the lysamine green reagent, which selectively stains the epithelium defect area, was treated on the surface of the damaged corneal epithelium and washed with physiological saline.
# 8-oxo-dG was applied into the eye of the ethanol induced corneal injury mouse model for a week and then the recovery of the corneal epithelium damage was investigated. Particularly, the ethanol induced corneal injury mouse model examined in Experimental Example 1 was injected with Zoletil intramuscularly in order to anesthetize the mouse, followed by lysamine green staining on the cornea. Then, epithelial integrity and clarity of the corneal epithelium and corneal neovascularization were investigated and the results proceeded to clinical grading and scoring by items.
# The corneal clarity was also evaluated and scored step by step. The indexes of the evaluation are as follows (Fantes et al, Arch Ophthalmol 1990).
# In addition, in order to evaluate and score the degree of corneal neovascularization, the cornea was divided into quadrants as shown in FIG. 1. Based on the limbus between the cornea and the sclera, 0.5 points were assigned to each part of the newly formed vessels in the inside, followed by indexing and scoring (total 12 scores) (Li et al, Molecular Vision 2010).
# During the application of 8-oxo-dG into the eye for a week, corneal staining was performed for a week to graphically identify the recovery of the corneal epithelial defects on daily basis.
# TNF-α = assay: Inflammatory cytokine mRNA expression in corneal tissue by real time PCR; format: in vivo, mouse; details: 5 mg/ml or 10 mg/ml in the eye twice a day for a week; compared with control; FIG. 7a
# IL-6 = assay: as above; format: in vivo, mouse; details: 5 mg/ml or 10 mg/ml in the eye twice a day for a week; three groups incl. PBS; FIG. 7c
# Description: as §1
# (§2) Particularly, the ethanol induced corneal injury mouse model constructed in Example 1 was administered with 8-oxo-dG in the eye at the concentration of 5 mg/ml or 10 mg/ml and the control PBS (phosphate-buffered saline), twice a day for a week. The corneal tissue was extracted and homogenized with a sonicator (Ultrasonic Processor, Cole Parmer Instruments, Vernon Hills, Ill., USA). Then, corneal RNA was extracted by using RNeasy Mini kit (Qiagen, Valencia, Calif., USA). CDNA was synthesized with the same amount of RNA of each corneal sample and real-time PCR (ABI 7500 Real Time PCR System, Applied Biosystems, Carlsbad, Calif., USA) was performed. Taqman Gene Expression Assays were used for real-time PCR. The detailed inflammatory cytokines were as follows. […]
# IL-1β = assay: as above; format: in vivo, mouse; details: 10 mg/ml in the eye twice a day for a week; compared with control; FIG. 7b
# Description: as §1, §2
# [2] = system: neutrophils, macrophages and T cells; assay: Immunohistochemical staining of inflammatory cells in corneal tissue; format: in vivo, mouse; details: 5 mg/ml or 10 mg/ml in the eye twice a day for a week, compared with control
# Description: as §1
# Particularly, the ethanol induced corneal injury mouse model constructed in Example 1 was administered with 8-oxo-dG in the eye at the concentration of 5 mg/ml or 10 mg/ml and the control PBS (phosphate-buffered saline), twice a day for a week. The corneal tissues were extracted and fixed in 10% paraformaldehyde, followed by washing with PBS. The tissues were treated with anti-neutrophil elastase, anti CD3 and anti F4/80 antibodies (Abcam, Cambridge, UK), the markers of neutrophils, T lymphocytes and macrophages. After washing with PBS, the secondary antibody (REAL™ EnVision™ detection system, Dako) was applied thereto. […] The immunostained cells in each section were counted by hand by two skilled examiners and the numbers were averaged.
# [3] = system: ethanol induced corneal injury mouse model; assay: Visual and lysamine green staining observation of corneal epithelium surface; format: in vivo; details: 5 mg/ml and 10 mg/ml in the eye twice a day for a week; compared with control (PBS); FIG. 3
# Description: as §1
# The 8-oxo-2′-deoxyguanosine compound prepared at the concentrations of 5 mg/ml and 10 mg/ml and the control PBS (phosphate-buffered saline) were applied into the eye of the ethanol induced corneal injury mouse model constructed in Example 1, respectively twice a day for a week, followed by observation with the naked eye and photographs (n=15 in each group).
# [4] = system: ethanol induced corneal injury mouse model; assay: Histological observation (H&E) of corneal tissue; format: in vivo; details: 5 mg/ml or 10 mg/ml in the eye twice a day for a week; n=2; FIGS. 5a, 5b
# Description: as §1
# The ethanol induced corneal injury mouse model constructed in Example 1 was administered with 8-oxo-dG in the eye at the concentration of 5 mg/ml or 10 mg/ml and the control PBS (phosphate-buffered saline), twice a day for a week. The corneal tissues were extracted and fixed in 10% paraformaldehyde, followed by washing with PBS. The tissues were embedded in paraffin and the paraffin block was stained with H&E (haematoxylin and eosin), followed by direct observation under the microscope. The stromal thickness was measured by using Image J software.
compound,measurement,setting,value
"Nc1nc2c([nH]c(=O)n2[C@H]2CC(O)[C@@H](CO)O2)c(=O)[nH]1 (some centres unmarked) [8-oxo-dG, 8-oxo-2′-deoxyguanosine]",effect on Rac protein (GTPase),Rac protein,inactivated Rac protein
same,neovascularization scoring index,"[1]; 5 mg/ml or 10 mg/ml in the eye twice a day for a week, FIG. 4c",reduced in the group treated with 8-oxo-dG to some degree
same,epithelial integrity index score (defect of the corneal epithelium surface),"[1]; 5 mg/ml or 10 mg/ml in the eye twice a day for a week, compared with PBS, FIG. 4a",reduced in the group treated with 8-oxo-dG dose-dependently
same,corneal clarity scoring index,"[1]; 5 mg/ml or 10 mg/ml in the eye twice a day for a week, lower index = improved clarity, FIG. 4b",reduced in the group treated with 8-oxo-dG dose-dependently
same,daily recovery of corneal epithelial defects (corneal staining index score),"[1]; 5 mg/ml or 10 mg/ml in the eye, daily corneal staining for a week, FIG. 4d",significantly reduced in the group treated with 8-oxo-dG dose-dependently
same,expression of TNF-α mRNA,TNF-α,not significantly but slightly reduced
same,expression of IL-6 mRNA,IL-6,not much different
same,expression of IL-1β mRNA,IL-1β,significantly reduced
same,number of cells stained with anti-neutrophil elastase (neutrophils),[2]; FIG. 6a,reduced significantly
same,number of cells stained with anti F4/80 (macrophages),[2]; FIG. 6b,reduced significantly
same,number of cells stained with anti CD3 (T cells),[2]; FIG. 6c,not much different
same,"corneal epithelium surface damage, lysamine green staining (after staining)",[3],reduced significantly by the treatment of 8-oxo-dG dose-dependently
same,"corneal epithelium surface damage, naked eye (before staining)",[3],reduced by the treatment of 8-oxo-dG dose-dependently
same,corneal epithelium tissue condition/thickness (H&E),[4],restored to the normal level
